Measurements reported in patent US20020111274A1, “1-alkyl-3-[1-(substituted phenyl) benzotriazol-6-yl] uracils” (BASF Aktiengesellschaft, priority 2000, published 2002).

Key:
Parameters in all cases: scale not given here
[1] = test system: ABUTH Velvetleaf; assay: Preemergence herbicidal evaluation, ABUTH; format: in vivo, Abutilon theophrasti, Medic.; settings: preemergence
Summary of the method: (§1)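 Visual ratings were taken four to five weeks after application. Before that, cups sown with seed in potting soil received a spray of compound dissolved in aqueous acetone, equivalent to about 0.013 to 0.800 kg/ha, and stood on greenhouse benches under conventional care.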

[2] = test system: ZEAMX Corn, Field; assay: Preemergence herbicidal evaluation, ZEAMX; format: in vivo, Zea mays, L. (Sammel-Bezeichnung); settings: preemergence
Summary of the method: as §1

[3] = test system: ZEAMX Corn, Field; assay: Postemergence herbicidal evaluation, ZEAMX; format: in vivo, Zea mays, L. (Sammel-Bezeichnung); settings: postemergence spray, rated about two-three weeks after treatment
Summary of the method: (§2)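 Visual injury rating ~2–3 wk post-spray; replicate tests averaged. Two-week-old seedlings; foliar spray at 40 psi; 0.006–0.400 kg ai/ha in 80/20 acetone/water + 1.0% methylated seed oil.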

[4] = test system: SETVI Foxtail, Green; assay: Postemergence herbicidal evaluation, SETVI; format: in vivo, Setaria viridis, (L.) Beau; settings: postemergence spray, rated about two-three weeks after treatment
Summary of the method: as §2

[5] = test system: CASOB Sicklepod; assay: Postemergence herbicidal evaluation, CASOB; format: in vivo, Cassia obtusifolia, L.; settings: postemergence spray, rated about two-three weeks after treatment
Summary of the method: as §2

[6] = test system: TRZAWR Wheat, Winter, cv Riband; assay: Preemergence herbicidal evaluation, TRZAWR; format: in vivo, Triticum aestivum; settings: preemergence
Summary of the method: as §1

[7] = test system: ECHOG Barnyardgrass; assay: Preemergence herbicidal evaluation, ECHOG; format: in vivo, Echinochloa crus-galli, (L.) Beau; settings: preemergence
Summary of the method: as §1

[8] = test system: CHEAL Lambsquarters, Common; assay: Preemergence herbicidal evaluation, CHEAL; format: in vivo, Chenopodium album, L.; settings: preemergence
Summary of the method: as §1

[9] = test system: ABUTH Velvetleaf; assay: Postemergence herbicidal evaluation, ABUTH; format: in vivo, Abutilon theophrasti, Medic.; settings: postemergence spray, rated about two-three weeks after treatment
Summary of the method: as §2

[10] = test system: IPOHE Morningglory, Ivyleaf; assay: Preemergence herbicidal evaluation, IPOHE; format: in vivo, Ipomoea hederacea, (L.) Jacq.; settings: preemergence
Summary of the method: as §1

[11] = test system: SETVI Foxtail, Green; assay: Preemergence herbicidal evaluation, SETVI; format: in vivo, Setaria viridis, (L.) Beau; settings: preemergence
Summary of the method: as §1

[12] = test system: GLXMAW Soybean, Williams; assay: Postemergence herbicidal evaluation, GLXMAW; format: in vivo, Glycine max, (L.) Merr. cv Williams; settings: postemergence spray, rated about two-three weeks after treatment
Summary of the method: as §2

[13] = test system: GALAP Galium; assay: Postemergence herbicidal evaluation, GALAP; format: in vivo, Galium aparine; settings: postemergence spray, rated about two-three weeks after treatment
Summary of the method: as §2

[14] = test system: GLXMAW Soybean, Williams; assay: Preemergence herbicidal evaluation, GLXMAW; format: in vivo, Glycine max, (L.) Merr. cv Williams; settings: preemergence
Summary of the method: as §1

[15] = test system: GALAP Galium; assay: Preemergence herbicidal evaluation, GALAP; format: in vivo, Galium aparine; settings: preemergence
Summary of the method: as §1

[16] = test system: AMBEL Ragweed, Common; assay: Postemergence herbicidal evaluation, AMBEL; format: in vivo, Ambrosia artemisifolia, L.; settings: postemergence spray, rated about two-three weeks after treatment
Summary of the method: as §2

[17] = test system: CASOB Sicklepod; assay: Preemergence herbicidal evaluation, CASOB; format: in vivo, Cassia obtusifolia, L.; settings: preemergence
Summary of the method: as §1

[18] = test system: AMBEL Ragweed, Common; assay: Preemergence herbicidal evaluation, AMBEL; format: in vivo, Ambrosia artemisifolia, L.; settings: preemergence
Summary of the method: as §1

[19] = test system: ORYSAT Rice, Tebonnet; assay: Postemergence herbicidal evaluation, ORYSAT; format: in vivo, Oryza sativa, (L.); settings: postemergence spray, rated about two-three weeks after treatment
Summary of the method: as §2

[20] = test system: TRZAWR Wheat, Winter, cv Riband; assay: Postemergence herbicidal evaluation, TRZAWR; format: in vivo, Triticum aestivum; settings: postemergence spray, rated about two-three weeks after treatment
Summary of the method: as §2

[21] = test system: ECHOG Barnyardgrass; assay: Postemergence herbicidal evaluation, ECHOG; format: in vivo, Echinochloa crus-galli, (L.) Beau; settings: postemergence spray, rated about two-three weeks after treatment
Summary of the method: as §2

[22] = test system: ORYSAT Rice, Tebonnet; assay: Preemergence herbicidal evaluation, ORYSAT; format: in vivo, Oryza sativa, (L.); settings: preemergence
Summary of the method: as §1

[23] = test system: IPOHE Morningglory, Ivyleaf; assay: Postemergence herbicidal evaluation, IPOHE; format: in vivo, Ipomoea hederacea, (L.) Jacq.; settings: postemergence spray, rated about two-three weeks after treatment
Summary of the method: as §2

[24] = test system: CHEAL Lambsquarters, Common; assay: Postemergence herbicidal evaluation, CHEAL; format: in vivo, Chenopodium album, L.; settings: postemergence spray, rated about two-three weeks after treatment
Summary of the method: as §2

Cc1ccc(-n2nnc3cc(F)c(-n4c(=O)cc(C(F)(F)F)n(C)c4=O)cc32)cc1C [Example 23]
ABUTH herbicidal rating ([1]; rate 0.016 kg/ha): 0.0
ABUTH herbicidal rating ([1]; rate 0.032 kg/ha): 3.0
ABUTH herbicidal rating ([1]; rate 0.062 kg/ha): 9.0
ABUTH herbicidal rating ([1]; rate 0.125 kg/ha): 9.0
ZEAMX herbicidal rating ([2]; rate 0.016 kg/ha): 0.0
ZEAMX herbicidal rating ([2]; rate 0.032 kg/ha): 0.0
ZEAMX herbicidal rating ([2]; rate 0.062 kg/ha): 0.0
ZEAMX herbicidal rating ([2]; rate 0.125 kg/ha): 4.0
Postemergence herbicidal rating ZEAMX ([3]; 0.008 kg/ha): 5.5
Postemergence herbicidal rating ZEAMX ([3]; 0.016 kg/ha): 7.0
Postemergence herbicidal rating ZEAMX ([3]; 0.032 kg/ha): 8.0
Postemergence herbicidal rating ZEAMX ([3]; 0.062 kg/ha): 8.5
Postemergence herbicidal rating SETVI ([4]; 0.008 kg/ha): 7.0
Postemergence herbicidal rating SETVI ([4]; 0.016 kg/ha): 9.0
Postemergence herbicidal rating SETVI ([4]; 0.032 kg/ha): 9.0
Postemergence herbicidal rating SETVI ([4]; 0.062 kg/ha): 9.0
Postemergence herbicidal rating CASOB ([5]; 0.008 kg/ha): 0.0
Postemergence herbicidal rating CASOB ([5]; 0.016 kg/ha): 0.0
Postemergence herbicidal rating CASOB ([5]; 0.032 kg/ha): 0.0
Postemergence herbicidal rating CASOB ([5]; 0.062 kg/ha): 3.0
TRZAWR herbicidal rating ([6]; rate 0.016 kg/ha): 0.0
TRZAWR herbicidal rating ([6]; rate 0.032 kg/ha): 0.0
TRZAWR herbicidal rating ([6]; rate 0.062 kg/ha): 1.0
TRZAWR herbicidal rating ([6]; rate 0.125 kg/ha): 3.0
ECHCG herbicidal rating ([7]; rate 0.016 kg/ha): 0.0
ECHCG herbicidal rating ([7]; rate 0.032 kg/ha): 2.0
ECHCG herbicidal rating ([7]; rate 0.062 kg/ha): 5.0
ECHCG herbicidal rating ([7]; rate 0.125 kg/ha): 8.0
CHEAL herbicidal rating ([8]; rate 0.016 kg/ha): 0.0
CHEAL herbicidal rating ([8]; rate 0.032 kg/ha): 7.0
CHEAL herbicidal rating ([8]; rate 0.062 kg/ha): 9.0
CHEAL herbicidal rating ([8]; rate 0.125 kg/ha): 9.0
Postemergence herbicidal rating ABUTH ([9]; 0.008 kg/ha): 9.0
Postemergence herbicidal rating ABUTH ([9]; 0.016 kg/ha): 9.0
Postemergence herbicidal rating ABUTH ([9]; 0.032 kg/ha): 9.0
Postemergence herbicidal rating ABUTH ([9]; 0.062 kg/ha): 9.0
IPOHE herbicidal rating ([10]; rate 0.016 kg/ha): 0.0
IPOHE herbicidal rating ([10]; rate 0.032 kg/ha): 0.0
IPOHE herbicidal rating ([10]; rate 0.062 kg/ha): 0.0
IPOHE herbicidal rating ([10]; rate 0.125 kg/ha): 1.0
SETVI herbicidal rating ([11]; rate 0.016 kg/ha): 3.0
SETVI herbicidal rating ([11]; rate 0.032 kg/ha): 8.0
SETVI herbicidal rating ([11]; rate 0.062 kg/ha): 9.0
SETVI herbicidal rating ([11]; rate 0.125 kg/ha): 9.0
Postemergence herbicidal rating GLXMAW ([12]; 0.008 kg/ha): 3.5
Postemergence herbicidal rating GLXMAW ([12]; 0.016 kg/ha): 4.5
Postemergence herbicidal rating GLXMAW ([12]; 0.032 kg/ha): 4.5
Postemergence herbicidal rating GLXMAW ([12]; 0.062 kg/ha): 4.5
Postemergence herbicidal rating GALAP ([13]; 0.008 kg/ha): 0.0
Postemergence herbicidal rating GALAP ([13]; 0.016 kg/ha): 2.0
Postemergence herbicidal rating GALAP ([13]; 0.032 kg/ha): 2.0
Postemergence herbicidal rating GALAP ([13]; 0.062 kg/ha): 2.0
GLXMAW herbicidal rating ([14]; rate 0.016 kg/ha): 0.0
GLXMAW herbicidal rating ([14]; rate 0.032 kg/ha): 0.0
GLXMAW herbicidal rating ([14]; rate 0.062 kg/ha): 0.0
GLXMAW herbicidal rating ([14]; rate 0.125 kg/ha): 0.0
GALAP herbicidal rating ([15]; rate 0.016 kg/ha): 0.0
GALAP herbicidal rating ([15]; rate 0.032 kg/ha): 0.0
GALAP herbicidal rating ([15]; rate 0.062 kg/ha): 0.0
GALAP herbicidal rating ([15]; rate 0.125 kg/ha): 0.0
Postemergence herbicidal rating AMBEL ([16]; 0.008 kg/ha): 0.0
Postemergence herbicidal rating AMBEL ([16]; 0.016 kg/ha): 0.0
Postemergence herbicidal rating AMBEL ([16]; 0.032 kg/ha): 4.0
Postemergence herbicidal rating AMBEL ([16]; 0.062 kg/ha): 9.0
CASOB herbicidal rating ([17]; rate 0.016 kg/ha): 0.0
CASOB herbicidal rating ([17]; rate 0.032 kg/ha): 0.0
CASOB herbicidal rating ([17]; rate 0.062 kg/ha): 0.0
CASOB herbicidal rating ([17]; rate 0.125 kg/ha): 0.0
AMBEL herbicidal rating ([18]; rate 0.016 kg/ha): 0.0
AMBEL herbicidal rating ([18]; rate 0.032 kg/ha): 0.0
AMBEL herbicidal rating ([18]; rate 0.062 kg/ha): 0.0
AMBEL herbicidal rating ([18]; rate 0.125 kg/ha): 1.0
Postemergence herbicidal rating ORYSAT ([19]; 0.008 kg/ha): 2.5
Postemergence herbicidal rating ORYSAT ([19]; 0.016 kg/ha): 3.0
Postemergence herbicidal rating ORYSAT ([19]; 0.032 kg/ha): 3.5
Postemergence herbicidal rating ORYSAT ([19]; 0.062 kg/ha): 4.0
Postemergence herbicidal rating TRZAWR ([20]; 0.008 kg/ha): 4.0
Postemergence herbicidal rating TRZAWR ([20]; 0.016 kg/ha): 4.5
Postemergence herbicidal rating TRZAWR ([20]; 0.032 kg/ha): 5.5
Postemergence herbicidal rating TRZAWR ([20]; 0.062 kg/ha): 6.5
Postemergence herbicidal rating ECHCG ([21]; 0.008 kg/ha): 0.0
Postemergence herbicidal rating ECHCG ([21]; 0.016 kg/ha): 0.0
Postemergence herbicidal rating ECHCG ([21]; 0.032 kg/ha): 0.0
Postemergence herbicidal rating ECHCG ([21]; 0.062 kg/ha): 0.0
ORYSAT herbicidal rating ([22]; rate 0.016 kg/ha): 0.0
ORYSAT herbicidal rating ([22]; rate 0.032 kg/ha): 0.0
ORYSAT herbicidal rating ([22]; rate 0.062 kg/ha): 0.0
ORYSAT herbicidal rating ([22]; rate 0.125 kg/ha): 0.0
Postemergence herbicidal rating IPOHE ([23]; 0.008 kg/ha): 2.0
Postemergence herbicidal rating IPOHE ([23]; 0.016 kg/ha): 9.0
Postemergence herbicidal rating IPOHE ([23]; 0.032 kg/ha): 9.0
Postemergence herbicidal rating IPOHE ([23]; 0.062 kg/ha): 9.0
Postemergence herbicidal rating CHEAL ([24]; 0.008 kg/ha): 3.0
Postemergence herbicidal rating CHEAL ([24]; 0.032 kg/ha): 4.0
Postemergence herbicidal rating CHEAL ([24]; 0.062 kg/ha): 9.0
